“Also recorded” adds a separate entry of the source. Read-outs that look alike come from different tables or passages of the source.
What was measured:
[1] = tested on: cultured naïve dopamine neurons; design: method as in PMID 36500381; details: in vitro; cited from earlier work
[2] = Stability of PA-96 in whole mouse blood; format: in vitro ADME, mice; details: spike 50 ng/mL, 5-240 min
From the text: A crucial factor to consider is the stability of the compound in biological matrices. Both whole blood and plasma may contain enzymes able to metabolise the substance, and the metabolism rate can be relatively high. This can result in a rapid decrease in the substance concentration and an incorrect calibration curve. Additionally, if blood samples from experimental animals are dried as spots, metabolism during drying may lead to incorrect analyte concentrations. Considering these factors, we investigated the stability of the agent PA-96 in whole mouse blood.
(§1) To study the influence of the enzymes on the PA-96 stability in whole blood, mice blood spikes containing PA-96 in the concentration of 50 ng/mL were prepared. Aliquots of the spike were precipitated according to the protocol described above. Sampling was carried out at the following timepoints: 5, 10, 20, 30, 40, 50, 120, 180, and 240 min. The long-term stability of the samples was studied by the comparison of freshly prepared samples and samples prepared and kept in different conditions for 7 days. The storage conditions were the following: room temperature (+23 °C), household fridge (+4 °C), and Kelvinator (−70 °C). The acceptance criterion was a CV ≤ 15% for every day and any storing condition.

[3] = Pharmacokinetics of PA-96 after double p.o. administration to mice; format: in vivo, CD-1 mice; details: for AUC(0-t) / Cmax / half-life / Vd/F: 5 mg/kg; for Vd/F: read-out: Vz/F_obs
Procedure: In our work, an experiment with double administration of the agent PA-96 was carried out. The substance was administered to mice (n = 6) two times at doses of 5 mg/kg within the interval of 4 h as a formulation in Tween-80. After the first administration, blood was collected from the tail vein of each animal at 5, 10, 20, 30, 40, 50, 60, 75, and 90 min, and 2, 2.5, 3, 3.5, and 4 h. After the administration of the second dose, blood was collected at the same timepoints, and all samples were prepared following the PPT protocol.
(§2) The LC–MS/MS analysis was carried out using a Shimadzu LC-20AD Prominence chromatograph equipped with a cooling autosampler, binary gradient pump, and column oven (Shimadzu, Japan) coupled with a 3200 QTRAP mass spectrometer (AB SCIEX, Framingham, MA, USA) equipped with an electrospray ionisation source (ESI). The mass spectrometer worked in positive mode and multiple reaction monitoring (MRM) detection mode for quantitation. Analyst 1.6.2 software (AB SCIEX, Framingham, MA, USA) was used for instrument control and data acquisition, and MultiQuant 2.1 software (AB SCIEX, Framingham, MA, USA) was used for quantitation. To calculate the main pharmacokinetic parameters, the Microsoft Excel plugin PKSolver was used.
(§3) CD-1 mice (male and female) were obtained from the SPF vivarium of the Institute of Cytology and Genetics, Russia. The mice weighed 25–30 g at the beginning of the experiment.
To investigate the pharmacokinetics of PA-96 in a multiple dosing regimen, the dosage form was prepared as described above, but only half was administered to the animals (n = 6). The first portion, corresponding to a dose of 5 mg/kg, was administered to the mice followed by blood sampling at 5, 10, 20, 30, 40, 50, 60, 75, and 90 min, and 2, 2.5, 3, 3.5, and 4 h after administration. At the latter timepoint, the second dose was administered, and the blood was sampled at the same timepoints as listed above.

[4] = Pharmacokinetics of PA-96 after intravenous (i.v.) injection to mice; format: in vivo, CD-1 mice; details: for AUC(0-t) / Cmax / Tmax / half-life: both sexes, CD-1, mouse, whole blood, iv
Procedure: To evaluate the bioavailability of the agent PA-96, a suspension of the compound with Tween-80 was administered intravenously at doses of 1 and 10 mg/kg. After administration, blood in an amount of approximately 10 µL was collected from the tail vein of each animal at 5, 10, 15, 30, 45, 60, 90, 120, and 150 min, and samples were prepared following the PPT protocol.
Therefore, it was necessary to widen the operating concentration range of the calibration curve. To quantify PA-96 in these blood samples, we prepared and analysed spikes containing the agent in concentrations of 530, 1325, 2650, 3530, 8800, 10,600, and 21,200 ng/mL, which were used to construct a high-concentration calibration curve. In addition to these calibrators, quality control samples were prepared containing PA-96 at the concentrations of 1760, 5300, and 17,100 ng/mL (QCL, QCM, and QCH, respectively). […] As the objective of building this calibration curve was to evaluate the concentration of PA-96 only in several samples, the full validation of this expansion of the developed bioanalytical method was not performed.
as §2, §3
In order to investigate the bioavailability and dose proportionality, PA-96 was administered p.o. at the dosages of 1, 5, and 10 mg/kg and intravenously (i.v.) at the dosages of 1 and 10 mg/kg. […] The blood was drawn from the tail vein at the following timepoints: 3, 5, 10, 15, 30, 45, 60, 90, 120, and 150 min. The samples were prepared and analysed.

[5] = Stability of PA-96 in prepared samples under different storage conditions; format: physicochemical; details: within 7 days; +23 °C, +4 °C, −70 °C
Procedure: The stability of PA-96 in the prepared samples was investigated at different storage conditions, as mentioned in the experimental methods section.
as §1

[6] = tested on: MPTP-, haloperidol-, and rotenone-induced models; details: cited from earlier work
[7] = both sexes, CD-1, mouse, whole blood, po, double p.o. 2×5 mg/kg, 1st administration, mean ± SEM, n = 6
[8] = both sexes, CD-1, mouse, whole blood, po, double p.o. 2×5 mg/kg, 2nd administration, mean ± SEM, n = 6
[9] = animal MPTP and haloperidol models of PD

Question: With C=C(C)[C@@H]1CC=C(C)[C@@H](Sc2nc[nH]n2)[C@@H]1O [PA-96] as the compound, how does the “Survival of cultured naïve dopamine neurons” value [1] read?
Answer: supported the survival; also recorded: improved potency

Question: What about the “PA-96 concentration in whole mouse blood during stability investigation” value [2] of the same compound?
Answer: consistent within the accuracy of analysis error

Question: And the AUC(0-t) [3, 7]?
Answer: 25 ng·h/mL

Question: What about the Cmax [3, 7] of the same compound?
Answer: 60 ± 15 ng/mL

Question: What about the half-life [3, 7] of the same compound?
Answer: 21 ± 4 min

Question: What about the Vd/F [3, 7] of the same compound?
Answer: 108 ± 25 L/kg

Question: What about the AUC(0-t) [3, 8] of the same compound?
Answer: 135 ng·h/mL

Question: And the Cmax [3, 8]?
Answer: 58 ± 13 ng/mL

Question: What about the half-life [3, 8] of the same compound?
Answer: 19 ± 3 min

Question: What about the Vd/F [3, 8] of the same compound?
Answer: 25 ± 4 L/kg

Question: And the Tmax ([3]; both sexes, CD-1, mouse, whole blood, po, double p.o. 2×5 mg/kg, interval 4 h, 1st administration, mean ± SEM, n = 6)?
Answer: 10 min

Question: What about the “Accumulation after double administration (Cmax, AUC0-∞)” value ([3]; double p.o. 2×5 mg/kg, interval 4 h, mice) of the same compound?
Answer: absence of its accumulation

Question: And the “Time to full elimination after administration” value ([3]; p.o. 5 mg/kg, double administration experiment, mice)?
Answer: 4 h

Question: And the AUC(0-t) ([4]; 1 mg/kg, mean ± SEM, n = 6)?
Answer: 85 ng·h/mL

Question: And the Cmax ([4]; 1 mg/kg, mean ± SEM, n = 6)?
Answer: 390 ng/mL

Question: What about the Tmax ([4]; 1 mg/kg, mean ± SEM, n = 6) of the same compound?
Answer: 3.3 min

Question: What about the half-life ([4]; 1 mg/kg, mean ± SEM, n = 6) of the same compound?
Answer: 37 ± 10 min

Question: And the AUC(0-t) ([4]; 10 mg/kg, mean ± SEM, n = 2)?
Answer: 2170 ng·h/mL

Question: And the Cmax ([4]; 10 mg/kg, mean ± SEM, n = 2)?
Answer: > 7700 ng/mL

Question: And the half-life ([4]; 10 mg/kg, mean ± SEM, n = 2)?
Answer: 26.1 ± 2.9 min

Question: What about the Tmax ([4]; 10 mg/kg, n = 2) of the same compound?
Answer: 3 min

Question: What about the “Concentration level 1 h after administration” value ([4]; i.v. 1 and 10 mg/kg) of the same compound?
Answer: several nanograms per mL

Question: And the “Time in which concentration decreases twofold after injection” value ([4]; i.v. 1 and 10 mg/kg)?
Answer: 10 to 15 min

Question: What about the “Increase of AUC when the dose was increased tenfold” value ([4]; i.v. 1 vs 10 mg/kg) of the same compound?
Answer: approximately 25 times

Question: What about the “Increase of Cmax when the dose was increased tenfold” value ([4]; i.v. 1 vs 10 mg/kg) of the same compound?
Answer: twentyfold

Question: What about the “Change of PA-96 concentration in prepared samples” value [5] of the same compound?
Answer: ≤ 11%

Question: And the “Effect on motor deficits” value ([6]; MPTP and haloperidol-based mice models of Parkinson's disease)?
Answer: alleviated motor deficits

Question: And the “Density of tyrosine hydroxylase positive neurons and dopamine concentration in the midbrain” value ([6]; MPTP-damaged brain)?
Answer: increased

Question: And the “Antiparkinsonian activity relative to Prottremine” value [6, 9]?
Answer: more active than Prottremine

Question: What about the “Dose at which antiparkinsonian effect was displayed” value [6, 9] of the same compound?
Answer: 1 mg/kg

Reference: article PMC11434290, “Pharmacokinetics and Dose Proportionality Study of a Novel Antiparkinsonian Agent, a 1H-1,2,4-Triazol-3-ylthio-conjugate of Prottremine” (Molecules, 2024)
